In assay [1] the target is T1, DUSP1 enzyme (activation domain, amino acid residues 166-316) (Homo sapiens, UniProt P28562).
T1 construct: made in house; host or cells: E. coli BL21
T1 sequence (P28562 166-316): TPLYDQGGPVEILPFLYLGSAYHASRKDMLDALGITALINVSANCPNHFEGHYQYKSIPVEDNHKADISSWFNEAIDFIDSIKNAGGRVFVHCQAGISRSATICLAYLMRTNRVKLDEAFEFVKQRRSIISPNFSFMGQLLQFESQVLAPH
Description: DUSP1 activity inhibitory potency, fluorescence enzyme assay with DiFMUP substrate. The conditions noted are these: 50 nM DUSP1 activation domain, 10 μM DiFMUP, 5% DMSO. In kind it is biochemical. The method, then:
The inhibitory potency of the DUSP1 activity on 8 kinds of the compounds screened in Example 1 was measured.
As the assay buffer, 20 mM Tris-HCl (pH 8.0), 0.01% Triton X-100 and 5 mM DTT were used, and a fluorescent substrate of 6,8-difluoro-4-methylumbelliferyl phosphate (DiFMUP) 10 μM was used as the substrate. The DUSP1 enzyme was expressed and purified from the activation domain (amino acid residues 166-316) and was used at 50 nM concentration in the enzyme reaction.
The expression and purification of the activation domain was carried out in the following manner. The DUSP1 activation domain (amino acid residues 166-316) was cloned into the pET28a (Novagen) vector and expressed in E. coli BL21 strain. The E. coli transformed with the expression vector of the DUSP1 activation domain was promoted with 0.1 mM of IPTG (isopropyl β-D-1-thiogalactopyranoside) at 37° C. The E. coli expressed with the DUSP1 activation domain was purified using a nickel affinity column after being crushed with a sonicator. The purified protein was quantified by the Bradford assay and used for the enzyme reaction.
The fluorescence generated by the enzymatic action was measured using a Victor spectrofluorometer (PerkinElmer) with an excitation/emission wavelength of 355 nm/460 nm. From the obtained results, the intermediate suppression value (IC50) was determined according to a 4-parameter logistic method of the Sigmaplot program package (Systat software Inc.), and the measurement results of the DUSP1 enzyme activity inhibitory potency were shown in Table 2 below.

The test system of assay [2] is normal hepatocyte line BNL-CL2. Description: MTT analysis on normal hepatocyte line. In kind it is cell-based. The settings on record: 96 hours; for cell growth rate (MTT), BNL-CL2 cell line, compound concentration 5.0 μM: BNL-CL2, 5.0 μM, unit assumed. Here is the method:
(§1) The MTT analysis was performed to confirm the potency of inhibiting the growth of liver cancer cells of the DUSP1 inhibitor compound of the present invention.
(§2) A human liver cancer cell line Hep3B was cultured in DMEM, 10% FBS, 1% Anti-anti (Gibco) and prepared in a 96-well plate at a density of 7,000 cells/well. A normal hepatocyte line BNL-CL2 cell was cultured in DMEM, 10% FBS, 1% Anti-anti (Gibco) and prepared in a 96-well plate at a density of 3,000 cells/well.
(§3) After incubating at 37° C. for 15 hours, Compounds 6 to 8 were treated at the time of medium exchange so that final concentrations of the compounds in the medium become 2.5 μM and 5.0 μM, respectively, and the treatment conditions were adjusted so that the final DMSO concentration in the medium after treatment of the compounds can be maintained to 0.5%.
(§4) After 96 hours, a cell growth rate was measured using the Roche Cell […] Assay I (MTT) Kit. 10 μL of the MTT solution was added to each of 100 μL wells to a final concentration of 0.5 mg/ml, and then incubated at 37° C. for 4 hours and 100 μL of the solubilization buffer provided in the Kit was added.

For assay [3], the system named is human liver cancer cell line Hep3B. Description: MTT analysis of liver cancer cell growth inhibition. In kind it is cell-based. The conditions noted are these: 96 hours, unit assumed. The method, then: as §1, §2, §3, §4
A further assay has as its system PC12 neuron. Description: Neurite outgrowth assay with NGF. In kind it is cell-based. The settings on record: PC12, phase contrast microscope, 72 hours. The method, then:
The Neurite outgrowth assay was carried out with PC12 neuron by appropriately modifying the protocol described in Ishima et al., (2015) Potentiation of neurite outgrowth by brexpiprazole, a novel serotonin-dopamine activity modulator: A role for serotonin 5-HT1A and 5-HT2A receptors. Eur. Neuropsychopharm. 25, 505-511.
The PC12 neurite cells were distributed by the Korea Cell Line Bank (Seoul National University in Korea) and prepared in a 96-well plate at a density of 7,000 cells/well. The cell culture was performed in Dulbeco's Modified Eagle's Media (DMEM), 10% FBS and 1% Anti-anti (Gibco).

In assay [4] the test system is human liver cancer cell line Hep3B xenograft. Description: Xenograft assay for tumor suppression. In kind it is in vivo. The settings on record: Hep3B xenograft in nude mouse, two intratumoral doses 4 days apart, measured 4 days after second dose; FIG. 4. Here is the method:
Using a xenograft assay method, it was confirmed whether the DUSP1 inhibitor of the present invention has the potency of inhibiting the cell growth of a liver cancer.
A human liver cancer cell line Hep3B of 1×10^7 was injected into the subcutaneous layer of the back of a nude mouse in DMEM medium, and then when the cell line was 200 to 500 mm^3 in size, it was extracted and inserted into the subcutaneous layer of the back of a new nude mouse in the size of 5×5×5 mm.
The primary and secondary compounds 7 were administered intratumorally at concentrations of 3 μg and 6 μg, respectively, and the primary and secondary compounds 8 were administered intratumorally at concentrations of 2 μg and 4 μg, respectively.

For assay [5], the target named is T1, DUSP1 enzyme (activation domain, amino acid residues 166-316). The settings on record: comparison value quoted in text; read-out: IC50 value of known selective DUSP1 inhibitor; cited from earlier work.

Where two headings read alike, the source gives them in different places.

The values that follow come from patent US11147807B2, “Pharmaceutical composition containing DUSP1 inhibitor” (INDUSTRY-UNIVERSITY COOPERATION FOUNDATION HANYANG …, priority 2017, dated 2021).

In the case of `CC(C)C(=O)c1c(Nc2cc(Cl)cc(Cl)c2)[nH]c2c(Cl)ccc([N+](=O)[O-])c2c1=O` [Compound 1], inhibition in assay [1] was half-maximal at 5.1 µM (IC50).

With `CC(=O)c1c(Nc2ccc(Cl)cc2Cl)[nH]c2c(Cl)ccc(F)c2c1=O` [Compound 3], the IC50 – broadly, the midpoint of a concentration-inhibition curve – in assay [1] was 7.5 µM.

In assay [1], `CC(=O)c1c(Nc2ccc(Br)cc2Br)[nH]c2c(Cl)ccc(F)c2c1=O` [Compound 4] registered an IC50 of 6.1 µM.

For the compound `O=C(c1c(Nc2cc(Cl)cc(Cl)c2)[nH]c2c(Cl)ccc([N+](=O)[O-])c2c1=O)C1CC1` [Compound 5], it took 4.1 µM to reach half-maximal inhibition in assay [1] (IC50).

In the case of `CC(=O)c1c(Nc2cc(C(F)(F)F)cc(C(F)(F)F)c2)[nH]c2c(Cl)ccc(F)c2c1=O` [Compound 6], in assay [2], the cell growth rate (MTT), BNL-CL2 cell line, compound concentration 5.0 μM was 8% and the “cell growth rate (MTT), BNL-CL2 cell line, compound concentration […]” value (from here on “cell growth rate (MTT), BNL-CL2 cell line … […]”) is given as 111. The compound also returned a cell growth rate (MTT), HEP3B cell line, compound concentration 5.0 μM in assay [3] of 14%. In assay [1], this compound returned an IC50 of 4.2 µM. Also, the “induction of neurite outgrowth” value with PC12 neuron is listed as “shape of neurites stretching from the cell can be confirmed”.

On to `CC(C)CC(=O)c1c(Nc2cc(Cl)cc(Cl)c2)[nH]c2c(Cl)ccc([N+](=O)[O-])c2c1=O` [Compound 7], for which, in assay [2], the “cell growth rate (MTT), BNL-CL2 cell line … […]” value was 156. Moreover, in assay [1], the IC50 was found to be 3.5 µM. In addition, the tumor size reduction entry in assay [4] is “about 70%”.

As for `CC(C)CC(=O)c1c(Nc2cccc(Cl)c2Cl)[nH]c2c(Cl)ccc([N+](=O)[O-])c2c1=O` [Compound 8], in assay [2], the cell growth rate (MTT), BNL-CL2 cell line, compound concentration 5.0 μM is 54% and the “cell growth rate (MTT), BNL-CL2 cell line … […]” value was 139. The same compound gave a cell growth rate (MTT), HEP3B cell line, compound concentration 5.0 μM in assay [3] of 16%. In assay [1], this compound showed an IC50 of 4.8 µM. The tumor size reduction result in assay [4] is recorded as “about 85%”.

With `C[n+]1cc2c3c(ccc2c2ccc4cc5c(cc4c21)OCO5)OCO3` [Sanguinarin], the IC50 in assay [5] is 10 µM.
